Numbers after ± are expanded uncertainties.
Experiments:
[1] = Molar enthalpy of transition or fusion; details: DSC
[2] = for molar entropy: 101.33 kPa, Small (less than 1 g) adiabatic calorimetry; for Triple point temperature: DTA

CCCC[N+](CCCC)(CCCC)CCCC.[I-] [tetrabutylammonium iodide]
Molar enthalpy of transition or fusion ([1]; Crystal 1): 2.15 ± 0.0717 kcal/mol | Molar enthalpy of transition or fusion ([1]; Crystal 2): 6.64 ± 0.143 kcal/mol | molar entropy ([2]; 5 K, Crystal 2): 0.292 ± 0.03 J/K/mol | molar entropy ([2]; 10 K, Crystal 2): 2.32 ± 0.07 J/K/mol | molar entropy ([2]; 20 K, Crystal 2): 14.45 ± 0.23 J/K/mol | molar entropy ([2]; 30 K, Crystal 2): 33.35 ± 0.31 J/K/mol | molar entropy ([2]; 40 K, Crystal 2): 55.15 ± 0.44 J/K/mol | molar entropy ([2]; 50 K, Crystal 2): 77.88 ± 0.57 J/K/mol | molar entropy ([2]; 60 K, Crystal 2): 100.5 ± 0.7 J/K/mol | molar entropy ([2]; 70 K, Crystal 2): 123 ± 0.8 J/K/mol | molar entropy ([2]; 80 K, Crystal 2): 145 ± 1 J/K/mol | molar entropy ([2]; 90 K, Crystal 2): 166.3 ± 1 J/K/mol | molar entropy ([2]; 100 K, Crystal 2): 187 ± 1.2 J/K/mol | molar entropy ([2]; 110 K, Crystal 2): 207.1 ± 1.3 J/K/mol | molar entropy ([2]; 120 K, Crystal 2): 226.7 ± 1.4 J/K/mol | molar entropy ([2]; 130 K, Crystal 2): 245.6 ± 1.5 J/K/mol | molar entropy ([2]; 140 K, Crystal 2): 264 ± 1.6 J/K/mol | molar entropy ([2]; 150 K, Crystal 2): 282 ± 1.6 J/K/mol | molar entropy ([2]; 160 K, Crystal 2): 299.4 ± 1.7 J/K/mol | molar entropy ([2]; 170 K, Crystal 2): 316.5 ± 1.8 J/K/mol | molar entropy ([2]; 180 K, Crystal 2): 333.2 ± 1.9 J/K/mol | molar entropy ([2]; 190 K, Crystal 2): 349.6 ± 2 J/K/mol | molar entropy ([2]; 200 K, Crystal 2): 365.7 ± 2.1 J/K/mol | molar entropy ([2]; 210 K, Crystal 2): 381.6 ± 2.2 J/K/mol | molar entropy ([2]; 220 K, Crystal 2): 397.2 ± 2.2 J/K/mol | molar entropy ([2]; 230 K, Crystal 2): 412.6 ± 2.3 J/K/mol | molar entropy ([2]; 240 K, Crystal 2): 427.9 ± 2.4 J/K/mol | molar entropy ([2]; 250 K, Crystal 2): 443.1 ± 2.5 J/K/mol | molar entropy ([2]; 260 K, Crystal 2): 458.1 ± 2.6 J/K/mol | molar entropy ([2]; 270 K, Crystal 2): 473.1 ± 2.6 J/K/mol | molar entropy ([2]; 273.15 K, Crystal 2): 477.8 ± 2.7 J/K/mol | molar entropy ([2]; 280 K, Crystal 2): 488 ± 2.7 J/K/mol | molar entropy ([2]; 290 K, Crystal 2): 502.9 ± 2.8 J/K/mol | molar entropy ([2]; 298.15 K, Crystal 2): 515 ± 2.9 J/K/mol | molar entropy ([2]; 300 K, Crystal 2): 517.7 ± 2.9 J/K/mol | molar entropy ([2]; 310 K, Crystal 2): 532.6 ± 2.9 J/K/mol | molar entropy ([2]; 320 K, Crystal 2): 547.4 ± 3 J/K/mol | molar entropy ([2]; 330 K, Crystal 2): 562.3 ± 3.1 J/K/mol | molar entropy ([2]; 340 K, Crystal 2): 577.3 ± 3.2 J/K/mol | molar entropy ([2]; 350 K, Crystal 2): 592.4 ± 3.3 J/K/mol | Triple point temperature ([2]; Crystal 1): 423.2 ± 0.8 K | Triple point temperature ([2]; Crystal 2): 398.7 ± 1 K

Reference: the NIST ThermoML archive (doi:10.1016/j.tca.2008.10.017)
